Reference: the supplement of paper PMC8671470

System: HEL
Assay: cell viability (% survival relative to DMSO control, bortezomib = 0%); higher = less cytotoxic
Conditions: 1 nM; 72 h
Outline: (§1)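 Seeding density for each of the 10 AML and 5 CML cell lines was titrated to the linear growth range. Cells went into 384-well plates pre-printed in duplicate with compounds at 1, 10, 100, 1000 or 10000 nM and were held for 72 h at 37 °C with 5% CO2. CellTiter-Glo luminescence then provided the readout. Percent survival is expressed relative to vehicle at 100% and a 10 µM positive control at 0%, averaged over duplicates.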

Structure (SMILES)	cell viability [%]
O=C(c1c2ccccc2cc2ccccc12)N1CCC(N2CCC[C@@H](C(=O)N3CCOCC3)C2)CC1	106
c1ccc2c(c1)SCc1c-2[nH]c2ccccc12	106
CCC(CC#N)OC(=O)N[C@@H](C)c1cccc(NC(=O)Nc2ccc(-c3cnco3)c(OC)c2)c1 (stereo in doubt) [AVN-944]	101
Oc1ncc(F)c(O)n1 [5-fluorouracil]	95.1
CN(C)CCNC(=O)c1cccn2c(=O)c3cc4ccccc4cc3nc12 [Bmh-21]	110

Same assay, conditions: 10 nM; 72 h

Structure (SMILES)	cell viability [%]
O=C(c1c2ccccc2cc2ccccc12)N1CCC(N2CCC[C@@H](C(=O)N3CCOCC3)C2)CC1	108
c1ccc2c(c1)SCc1c-2[nH]c2ccccc12	102
CCC(CC#N)OC(=O)N[C@@H](C)c1cccc(NC(=O)Nc2ccc(-c3cnco3)c(OC)c2)c1 (stereo in doubt) [AVN-944]	119
Oc1ncc(F)c(O)n1 [5-fluorouracil]	104
CN(C)CCNC(=O)c1cccn2c(=O)c3cc4ccccc4cc3nc12 [Bmh-21]	93.8

Same assay, conditions: 100 nM; 72 h

Structure (SMILES)	cell viability [%]
O=C(c1c2ccccc2cc2ccccc12)N1CCC(N2CCC[C@@H](C(=O)N3CCOCC3)C2)CC1	110
c1ccc2c(c1)SCc1c-2[nH]c2ccccc12	94.6
CCC(CC#N)OC(=O)N[C@@H](C)c1cccc(NC(=O)Nc2ccc(-c3cnco3)c(OC)c2)c1 (stereo in doubt) [AVN-944]	70
Oc1ncc(F)c(O)n1 [5-fluorouracil]	84.2
CN(C)CCNC(=O)c1cccn2c(=O)c3cc4ccccc4cc3nc12 [Bmh-21]	93.8

Same assay, conditions: 1000 nM; 72 h

Structure (SMILES)	cell viability [%]
O=C(c1c2ccccc2cc2ccccc12)N1CCC(N2CCC[C@@H](C(=O)N3CCOCC3)C2)CC1	77.3
c1ccc2c(c1)SCc1c-2[nH]c2ccccc12	94.9
CCC(CC#N)OC(=O)N[C@@H](C)c1cccc(NC(=O)Nc2ccc(-c3cnco3)c(OC)c2)c1 (stereo in doubt) [AVN-944]	4.65
Oc1ncc(F)c(O)n1 [5-fluorouracil]	73.8
CN(C)CCNC(=O)c1cccn2c(=O)c3cc4ccccc4cc3nc12 [Bmh-21]	8

Same assay, conditions: 10000 nM; 72 h

Structure (SMILES)	cell viability [%]
O=C(c1c2ccccc2cc2ccccc12)N1CCC(N2CCC[C@@H](C(=O)N3CCOCC3)C2)CC1	94.7
c1ccc2c(c1)SCc1c-2[nH]c2ccccc12	7
CCC(CC#N)OC(=O)N[C@@H](C)c1cccc(NC(=O)Nc2ccc(-c3cnco3)c(OC)c2)c1 (stereo in doubt) [AVN-944]	2.7
Oc1ncc(F)c(O)n1 [5-fluorouracil]	31.8
CN(C)CCNC(=O)c1cccn2c(=O)c3cc4ccccc4cc3nc12 [Bmh-21]	0.459

System: Mono-Mac-6
Assay: as above
Conditions: 1 nM; 72 h
Outline: as §1

Structure (SMILES)	cell viability [%]
O=C(c1c2ccccc2cc2ccccc12)N1CCC(N2CCC[C@@H](C(=O)N3CCOCC3)C2)CC1	101
c1ccc2c(c1)SCc1c-2[nH]c2ccccc12	97.8
CCC(CC#N)OC(=O)N[C@@H](C)c1cccc(NC(=O)Nc2ccc(-c3cnco3)c(OC)c2)c1 (stereo in doubt) [AVN-944]	90.2
Oc1ncc(F)c(O)n1 [5-fluorouracil]	95.4
CN(C)CCNC(=O)c1cccn2c(=O)c3cc4ccccc4cc3nc12 [Bmh-21]	89.8

Same assay, conditions: 10 nM; 72 h

Structure (SMILES)	cell viability [%]
O=C(c1c2ccccc2cc2ccccc12)N1CCC(N2CCC[C@@H](C(=O)N3CCOCC3)C2)CC1	109
c1ccc2c(c1)SCc1c-2[nH]c2ccccc12	105
CCC(CC#N)OC(=O)N[C@@H](C)c1cccc(NC(=O)Nc2ccc(-c3cnco3)c(OC)c2)c1 (stereo in doubt) [AVN-944]	90.5
Oc1ncc(F)c(O)n1 [5-fluorouracil]	95.5
CN(C)CCNC(=O)c1cccn2c(=O)c3cc4ccccc4cc3nc12 [Bmh-21]	101

Same assay, conditions: 100 nM; 72 h

Structure (SMILES)	cell viability [%]
O=C(c1c2ccccc2cc2ccccc12)N1CCC(N2CCC[C@@H](C(=O)N3CCOCC3)C2)CC1	93.4
c1ccc2c(c1)SCc1c-2[nH]c2ccccc12	103
CCC(CC#N)OC(=O)N[C@@H](C)c1cccc(NC(=O)Nc2ccc(-c3cnco3)c(OC)c2)c1 (stereo in doubt) [AVN-944]	60.2
Oc1ncc(F)c(O)n1 [5-fluorouracil]	88.4
CN(C)CCNC(=O)c1cccn2c(=O)c3cc4ccccc4cc3nc12 [Bmh-21]	106

Same assay, conditions: 1000 nM; 72 h

Structure (SMILES)	cell viability [%]
O=C(c1c2ccccc2cc2ccccc12)N1CCC(N2CCC[C@@H](C(=O)N3CCOCC3)C2)CC1	89.1
c1ccc2c(c1)SCc1c-2[nH]c2ccccc12	95.3
CCC(CC#N)OC(=O)N[C@@H](C)c1cccc(NC(=O)Nc2ccc(-c3cnco3)c(OC)c2)c1 (stereo in doubt) [AVN-944]	16.4
Oc1ncc(F)c(O)n1 [5-fluorouracil]	47.9
CN(C)CCNC(=O)c1cccn2c(=O)c3cc4ccccc4cc3nc12 [Bmh-21]	0.313

Same assay, conditions: 10000 nM; 72 h

Structure (SMILES)	cell viability [%]
O=C(c1c2ccccc2cc2ccccc12)N1CCC(N2CCC[C@@H](C(=O)N3CCOCC3)C2)CC1	75.8
c1ccc2c(c1)SCc1c-2[nH]c2ccccc12	-0.27
CCC(CC#N)OC(=O)N[C@@H](C)c1cccc(NC(=O)Nc2ccc(-c3cnco3)c(OC)c2)c1 (stereo in doubt) [AVN-944]	8.67
Oc1ncc(F)c(O)n1 [5-fluorouracil]	19.3
CN(C)CCNC(=O)c1cccn2c(=O)c3cc4ccccc4cc3nc12 [Bmh-21]	0.0551

System: BV-173
Assay: as above
Conditions: 1 nM; 72 h
Outline: as §1

Structure (SMILES)	cell viability [%]
O=C(c1c2ccccc2cc2ccccc12)N1CCC(N2CCC[C@@H](C(=O)N3CCOCC3)C2)CC1	111
c1ccc2c(c1)SCc1c-2[nH]c2ccccc12	98.6
CCC(CC#N)OC(=O)N[C@@H](C)c1cccc(NC(=O)Nc2ccc(-c3cnco3)c(OC)c2)c1 (stereo in doubt) [AVN-944]	93.8
Oc1ncc(F)c(O)n1 [5-fluorouracil]	99
CN(C)CCNC(=O)c1cccn2c(=O)c3cc4ccccc4cc3nc12 [Bmh-21]	105

Same assay, conditions: 10 nM; 72 h

Structure (SMILES)	cell viability [%]
O=C(c1c2ccccc2cc2ccccc12)N1CCC(N2CCC[C@@H](C(=O)N3CCOCC3)C2)CC1	108
c1ccc2c(c1)SCc1c-2[nH]c2ccccc12	113
CCC(CC#N)OC(=O)N[C@@H](C)c1cccc(NC(=O)Nc2ccc(-c3cnco3)c(OC)c2)c1 (stereo in doubt) [AVN-944]	80.7
Oc1ncc(F)c(O)n1 [5-fluorouracil]	110
